Assay results published in PubChem BioAssay AID624004 (Vanderbilt Specialized Chemistry Center, 2012).

Target: Phospholipase D2 (Homo sapiens) + Phospholipase D2 (Homo sapiens) (UniProt O14939+O14939)
Assay: PLD2 inhibition potency in cells, dose response, cell-based, Lib32, assay 2B (AID 624004)
Conditions: cellular PLD2 activity assay

Chain of Phospholipase D2 (Homo sapiens) + Phospholipase D2 (Homo sapiens) (O14939 whole entry, looked up): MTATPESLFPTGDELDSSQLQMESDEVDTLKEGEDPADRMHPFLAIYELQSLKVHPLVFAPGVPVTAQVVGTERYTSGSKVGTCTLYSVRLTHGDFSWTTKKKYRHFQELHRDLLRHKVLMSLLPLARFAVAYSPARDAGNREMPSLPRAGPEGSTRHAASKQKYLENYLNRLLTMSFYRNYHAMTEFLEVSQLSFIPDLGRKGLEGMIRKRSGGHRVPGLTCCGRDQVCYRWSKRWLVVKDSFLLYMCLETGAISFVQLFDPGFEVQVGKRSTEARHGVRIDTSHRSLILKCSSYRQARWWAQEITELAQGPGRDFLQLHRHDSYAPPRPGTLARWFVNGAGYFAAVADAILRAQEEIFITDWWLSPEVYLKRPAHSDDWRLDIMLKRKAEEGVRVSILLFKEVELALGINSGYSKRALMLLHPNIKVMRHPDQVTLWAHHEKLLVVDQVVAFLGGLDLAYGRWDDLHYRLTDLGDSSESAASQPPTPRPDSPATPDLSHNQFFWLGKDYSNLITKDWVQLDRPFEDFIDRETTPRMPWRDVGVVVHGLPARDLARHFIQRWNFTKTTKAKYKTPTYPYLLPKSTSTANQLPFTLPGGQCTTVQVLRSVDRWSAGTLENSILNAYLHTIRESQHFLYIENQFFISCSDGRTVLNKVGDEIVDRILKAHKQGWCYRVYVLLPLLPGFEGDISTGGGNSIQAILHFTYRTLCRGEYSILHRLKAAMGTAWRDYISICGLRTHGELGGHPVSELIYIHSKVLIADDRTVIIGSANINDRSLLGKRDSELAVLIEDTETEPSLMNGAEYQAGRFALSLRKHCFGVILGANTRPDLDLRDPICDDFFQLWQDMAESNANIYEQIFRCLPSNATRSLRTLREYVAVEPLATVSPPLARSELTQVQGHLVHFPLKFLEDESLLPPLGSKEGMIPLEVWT
Chain of Phospholipase D2 (Homo sapiens) + Phospholipase D2 (Homo sapiens) (O14939 whole entry, looked up): as above

SMILES	IC50 [nM]
O=C(NCCN1CCC2(CC1)C(=O)NCN2c1cccc(F)c1)c1ccc(Br)cc1	200
C[C@@H](CN1CCC2(CC1)C(=O)NCN2c1cccc(F)c1)NC(=O)c1cccc(F)c1	1200
COc1cc(C(=O)NCCN2CCC3(CC2)C(=O)NCN3c2cccc(F)c2)cc(OC)c1OC	1430
C[C@@H](CN1CCC2(CC1)C(=O)NCN2c1cccc(F)c1)NC(=O)c1ccc(F)c(F)c1	120
C[C@@H](CN1CCC2(CC1)C(=O)NCN2c1cccc(F)c1)NC(=O)c1cccc([N+](=O)[O-])c1	430
COc1cc(C(=O)N[C@@H](C)CN2CCC3(CC2)C(=O)NCN3c2cccc(F)c2)cc(OC)c1OC	72
O=C(NCCN1CCC2(CC1)C(=O)NCN2c1cccc(F)c1)c1ccc(F)cc1	355
C[C@@H](CN1CCC2(CC1)C(=O)NCN2c1cccc(F)c1)NC(=O)c1ccc(Br)cc1	84
C[C@@H](CN1CCC2(CC1)C(=O)NCN2c1cccc(F)c1)NC(=O)c1ccc(F)cc1F	947
C[C@@H](CN1CCC2(CC1)C(=O)NCN2c1cccc(F)c1)NC(=O)c1ccc(F)cc1	34
